Experimental data as given in patent US20250339569A1, “CARBONIC ANHYDRASE IX LIGANDS” (priority 2021, published 2025).
Where two headings read alike, the source gives them in different places. Starred links: 1 amine or outer side, 2 acyl side, 3 side chain; linkers in the order of their positions; H or OH if unused. Positions of bridges follow the written chain, without caps; N, C: chain ends. Non-standard residues stand in square brackets, D forms with d. Residues, ends and D or L forms follow the SMILES beside them. *: point of attachment. Phe(3-NHCO(CH2)3SO2NH2) = N[C@@H](Cc1cccc(NC(=O)CCCS(N)(=O)=O)c1)C(=O)O; X25 = CC(=O)N[C@H](CCC(=O)O)C(=O)Nc1cccc(C[C@@H](N[*:1])C(=O)[*:2])c1; X24 = NS(=O)(=O)c1ccc(C(=O)Nc2cccc(C[C@H](N[*:1])C(=O)[*:2])c2)cc1; X10 = NS(=O)(=O)c1cc(C(=O)Nc2cccc(C[C@H](N[*:1])C(=O)[*:2])c2)cs1; DOTA = O=C(O)CN1CCN(CC(=O)O)CCN(CC(=O)*)CCN(CC(=O)O)CC1; Trp(5-Cl) = N[C@@H](Cc1c[nH]c2ccc(Cl)cc12)C(=O)O; mXylylene = c1cc(C[*:1])cc(C[*:2])c1; X2 = O=C(CN1CCC(N[*:1])CC1)[*:2]; X1 = O=C(CN1CCN([*:1])CC1)[*:2]; Cha = N[C@@H](CC1CCCCC1)C(=O)O; Dap = NC[C@H](N)C(=O)O; Sar = CNCC(=O)O

Legend:
[1] = target: T1, human carbonic anhydrase IX (hCAIX-Fc) (Homo sapiens, UniProt Q16790); test: Surface plasmon resonance assay with hCAIX-Fc; type: binding; conditions: 25° C.; for t1/2 category (activity): SPR dissociation half-life, hCAIX-Fc; for Kd: SPR, hCAIX-Fc captured, read-out: pKD category (activity) (converted)
T1 construct: purchased SinoBliological (Sino Biological) 10107-H02H

[2] = target: T2, CAIX-expressing human HT-29 colorectal cancer cells (Homo sapiens, UniProt Q16790); test: FACS binding assay (IC50 determination, competition with tracer 3BP-2776 or 3BP-4149); conditions: 4° C., 1 hour, read-out: pIC50 category (activity) (converted)
T2 construct: CAIX-expressing human HT-29 colorectal cancer cells; host or cells: HT-29 human colorectal cancer cells
Procedure, shortened: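 HT-29 cells in FACS buffer (PBS, 1% FCS) at 500.000 cells/ml were exposed to compounds competing with a labelled tracer, with biotinylated compounds detected by 1 μg/mL APC-streptavidin for 30 min on ice. APC/Cy5 median fluorescence was read by flow cytometry and IC50 derived by 4PL fit.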

[3] = FACS binding assay, HT-29 cells, competition with tracer 3BP-4149 (3 nM, Cy5-labeled)
[4] = FACS binding assay, HT-29 cells, competition with tracer 3BP-2776 (10 nM, biotin-labeled)
[5] = FACS competition on HT-29 cells, Tracer ID 3BP-2776 (10 nM, biotin-labeled)

| t1/2 category (activity) [1] | Kd [1] [nM] | IC50 [2, 3] [nM] | IC50 [2, 4] [nM] | IC50 [2, 5] [nM] | Compound |
| --- | --- | --- | --- | --- | --- |
| B (t1/2 between 5.1 and 15.0 minutes) | < 10 | 10 to 79.4 | – | – | CC(=O)N[C@H](CCC(=O)O)C(=O)Nc1cccc(C[C@H]2NC(=O)[C@H](CC(=O)O)NC(=O)[C@H]3CCCN3C(=O)[C@H](CCC(=O)O)NC(=O)[C@@H](NC(=O)[C@H](Cc3ccc(O)cc3)NC(=O)[C@@H](NC(=O)CN3CCC(NC(=O)CN4CCN(CC(=O)O)CCN(CC(=O)O)CCN(CC(=O)O)CC4)CC3)C(C)C)CSCc3cccc(c3)CSC[C@@H](C(N)=O)NC(=O)[C@H](CO)NC(=O)[C@H](Cc3c[nH]c4ccccc34)NC(=O)[C@H]([C@@H](C)O)NC(=O)[C@H](CC(C)C)NC2=O)c1 [3BP-4362] ({DOTA}-[X2]VYCE[dP]D[X25]LTWSC-NH2; linker 4-13 via mXylylene) |
| C (t1/2 between 2.1 and 5.0 minutes) | < 10 | – | 10 to 79.4 | – | CC(C)C[C@@H]1NC(=O)[C@H](Cc2cccc(NC(=O)CCCC(=O)NO)c2)NC(=O)[C@H](CC(=O)O)NC(=O)[C@H]2CCCN2C(=O)[C@H](CCC(=O)O)NC(=O)[C@@H](NC(=O)[C@H](CCC(N)=O)NC(=O)CN2CCN(C(=O)CN3CCN(CC(=O)O)CCN(CC(=O)O)CCN(CC(=O)O)CC3)CC2)CSCc2cccc(c2)CSC[C@@H](C(N)=O)NC(=O)[C@H](CO)NC(=O)[C@H](Cc2c[nH]c3ccccc23)NC(=O)[C@H]([C@@H](C)O)NC1=O [3BP-4515] |
| B (t1/2 between 5.1 and 15.0 minutes) | < 10 | – | – | < 10 | CC(=O)N[C@H](C(=O)N[C@@H](Cc1ccc(O)cc1)C(=O)N[C@H]1CSCc2cccc(c2)CSC[C@@H](C(N)=O)NC(=O)[C@H](CCC(N)=O)NC(=O)[C@H](Cc2c[nH]c3ccccc23)NC(=O)[C@H]([C@@H](C)O)NC(=O)[C@H](CC(C)C)NC(=O)[C@H](Cc2c[nH]c3ccc(Cl)cc23)NC(=O)[C@H](CC(=O)O)NC(=O)CN(C)C(=O)[C@H](CCC(=O)O)NC1=O)C(C)C [3BP-3289] (Ac-VYCE[Sar]D[Trp(5-Cl)]LTWQC-NH2; linker 3-12 via mXylylene) |
| A (t1/2>15.0 minutes) | < 10 | < 10 | – | – | CC(C)C[C@@H]1NC(=O)[C@H](Cc2cccc(NC(=O)c3csc(S(N)(=O)=O)c3)c2)NC(=O)[C@H](CC(=O)O)NC(=O)[C@H]2CCCN2C(=O)[C@H](CCC(=O)O)NC(=O)[C@@H](NC(=O)[C@H](Cc2ccc(O)cc2)NC(=O)[C@@H](NC(=O)CN2CCC(NC(=O)CN3CCN(CC(=O)O)CCN(CC(=O)O)CCN(CC(=O)O)CC3)CC2)C(C)C)CSCc2cccc(c2)CSC[C@@H](C(N)=O)NC(=O)[C@H](CO)NC(=O)[C@H](Cc2c[nH]c3ccccc23)NC(=O)[C@H]([C@@H](C)O)NC1=O [3BP-4412] ({DOTA}-[X2]VYCE[dP]D[X10]LTWSC-NH2; linker 4-13 via mXylylene) |
| C (t1/2 between 2.1 and 5.0 minutes) | < 10 | – | – | < 10 | CC(=O)N[C@H](C(=O)N[C@@H](Cc1ccc(O)cc1)C(=O)N[C@H]1CSCc2cccc(c2)CSC[C@@H](C(N)=O)NC(=O)[C@H](C)NC(=O)[C@H](Cc2c[nH]c3ccccc23)NC(=O)[C@H]([C@@H](C)O)NC(=O)[C@H](CC(C)C)NC(=O)[C@H](Cc2c[nH]c3ccccc23)NC(=O)[C@H](CC(=O)O)NC(=O)CN(C)C(=O)[C@H](CCC(=O)O)NC1=O)C(C)C [3BP-3313] (Ac-VYCE[Sar]DWLTWAC-NH2; linker 3-12 via mXylylene) |
| A (t1/2>15.0 minutes) | < 10 | – | < 10 | – | CC(C)C[C@@H]1NC(=O)[C@H](Cc2cccc(NC(=O)Cn3cc(S(N)(=O)=O)cn3)c2)NC(=O)[C@H](CC(=O)O)NC(=O)[C@H]2CCCN2C(=O)[C@H](CCC(=O)O)NC(=O)[C@@H](NC(=O)[C@H](CCC(N)=O)NC(=O)CN2CCN(C(=O)CN3CCN(CC(=O)O)CCN(CC(=O)O)CCN(CC(=O)O)CC3)CC2)CSCc2cccc(c2)CSC[C@@H](C(N)=O)NC(=O)[C@H](CO)NC(=O)[C@H](Cc2c[nH]c3ccccc23)NC(=O)[C@H]([C@@H](C)O)NC1=O [3BP-4790] |
| C (t1/2 between 2.1 and 5.0 minutes) | < 10 | – | < 10 | – | CC(C)[C@H](NC(=O)CN1CCC(NC(=O)CN2CCN(CC(=O)O)CCN(CC(=O)O)CCN(CC(=O)O)CC2)CC1)C(=O)N[C@@H](Cc1ccc(O)cc1)C(=O)N[C@H]1CSCc2cccc(c2)CSC[C@@H](C(N)=O)NC(=O)[C@H](CO)NC(=O)[C@H](Cc2c[nH]c3ccccc23)NC(=O)[C@H]([C@@H](C)O)NC(=O)[C@H](CC2CCCCC2)NC(=O)[C@H](Cc2c[nH]c3ccccc23)NC(=O)[C@H](CC(=O)O)NC(=O)[C@H]2CCCN2C(=O)[C@H](CCC(=O)O)NC1=O [3BP-4143] ({DOTA}-[X2]VYCE[dP]DW[Cha]TWSC-NH2; linker 4-13 via mXylylene) |
| A (t1/2>15.0 minutes) | < 10 | – | < 10 | – | CC(C)C[C@@H]1NC(=O)[C@H](Cc2cccc(NC(=O)CCCS(N)(=O)=O)c2)NC(=O)[C@H](CC(=O)O)NC(=O)[C@H]2CCCN2C(=O)[C@H](CCC(=O)O)NC(=O)[C@@H]2CSCc3cccc(c3)CSC[C@@H](C(N)=O)NC(=O)[C@H](CNC(=O)CC[C@H](NC(=O)CN3CCN(C(=O)CN4CCN(CC(=O)O)CCN(CC(=O)O)CCN(CC(=O)O)CC4)CC3)C(=O)N2)NC(=O)[C@H](Cc2c[nH]c3ccccc23)NC(=O)[C@H]([C@@H](C)O)NC1=O [3BP-4502] ({DOTA}-[X1]ECE[dP]D[Phe(3-NHCO(CH2)3SO2NH2)]LTW[Dap]C-NH2; lactam 2-11; linker 3-12 via mXylylene) |
| B (t1/2 between 5.1 and 15.0 minutes) | < 10 | – | < 10 | – | CC(C)C[C@@H]1NC(=O)[C@H](Cc2c[nH]c3ccccc23)NC(=O)[C@H](CC(=O)O)NC(=O)[C@H]2CCCN2C(=O)[C@H](CCC(N)=O)NC(=O)[C@@H](NC(=O)[C@H](Cc2ccc(O)cc2)NC(=O)[C@@H](NC(=O)CN2CCC(NC(=O)CN3CCN(CC(=O)O)CCN(CC(=O)O)CCN(CC(=O)O)CC3)CC2)C(C)C)CSCc2cccc(c2)CSC[C@@H](C(N)=O)NC(=O)[C@H](CO)NC(=O)[C@H](Cc2c[nH]c3ccccc23)NC(=O)[C@H]([C@@H](C)O)NC1=O [3BP-4104] ({DOTA}-[X2]VYCQ[dP]DWLTWSC-NH2; linker 4-13 via mXylylene) |

| Compound | t1/2 category (activity) [1] | Kd [1] [nM] | IC50 [2, 3] [nM] | IC50 [2, 4] [nM] | IC50 [2, 5] [nM] |
| --- | --- | --- | --- | --- | --- |
| CC(C)C[C@@H]1NC(=O)[C@H](Cc2cccc(NC(=O)c3ccc(S(N)(=O)=O)cc3)c2)NC(=O)[C@H](CC(=O)O)NC(=O)[C@H]2CCCN2C(=O)[C@H](CCC(=O)O)NC(=O)[C@@H](NC(=O)[C@H](Cc2ccc(O)cc2)NC(=O)[C@@H](NC(=O)CN2CCC(NC(=O)CN3CCN(CC(=O)O)CCN(CC(=O)O)CCN(CC(=O)O)CC3)CC2)C(C)C)CSCc2cccc(c2)CSC[C@@H](C(N)=O)NC(=O)[C@H](CO)NC(=O)[C@H](Cc2c[nH]c3ccccc23)NC(=O)[C@H]([C@@H](C)O)NC1=O [3BP-4405] ({DOTA}-[X2]VYCE[dP]D[X24]LTWSC-NH2; linker 4-13 via mXylylene) | A (t1/2>15.0 minutes) | < 10 | < 10 | – | – |
